Laboratory results taken from ChEMBL document CHEMBL3758128, “Studies on Aryl-Substituted Phenylalanines: Synthesis, Activity, and Different Binding Modes at AMPA Receptors” (J Med Chem, 2016).

Key:
Glutamate receptor 1 = Glutamate receptor 1 (Rattus norvegicus, UniProt P19490); assay: biochemical
Description: Displacement of [3H]AMPA from rat cloned GluA1o receptor expressed in sf9 cells incubated for 1 to 2 hrs by liquid scintillation counting method

[1] = target: Glutamate receptor ionotropic, kainate 1 (Rattus norvegicus, UniProt P22756); assay: biochemical
Description: Displacement of [3H]SYM2081 from recombinant rat GluK1(Q)1b receptor expressed in sf9 cells incubated for 1 to 2 hrs by liquid scintillation counting method

Glutamate receptor 3 = Glutamate receptor 3 (Rattus norvegicus, UniProt P19492); assay: biochemical
Glutamate receptor 3, sequence (P19492 whole entry, the tested form may be a part): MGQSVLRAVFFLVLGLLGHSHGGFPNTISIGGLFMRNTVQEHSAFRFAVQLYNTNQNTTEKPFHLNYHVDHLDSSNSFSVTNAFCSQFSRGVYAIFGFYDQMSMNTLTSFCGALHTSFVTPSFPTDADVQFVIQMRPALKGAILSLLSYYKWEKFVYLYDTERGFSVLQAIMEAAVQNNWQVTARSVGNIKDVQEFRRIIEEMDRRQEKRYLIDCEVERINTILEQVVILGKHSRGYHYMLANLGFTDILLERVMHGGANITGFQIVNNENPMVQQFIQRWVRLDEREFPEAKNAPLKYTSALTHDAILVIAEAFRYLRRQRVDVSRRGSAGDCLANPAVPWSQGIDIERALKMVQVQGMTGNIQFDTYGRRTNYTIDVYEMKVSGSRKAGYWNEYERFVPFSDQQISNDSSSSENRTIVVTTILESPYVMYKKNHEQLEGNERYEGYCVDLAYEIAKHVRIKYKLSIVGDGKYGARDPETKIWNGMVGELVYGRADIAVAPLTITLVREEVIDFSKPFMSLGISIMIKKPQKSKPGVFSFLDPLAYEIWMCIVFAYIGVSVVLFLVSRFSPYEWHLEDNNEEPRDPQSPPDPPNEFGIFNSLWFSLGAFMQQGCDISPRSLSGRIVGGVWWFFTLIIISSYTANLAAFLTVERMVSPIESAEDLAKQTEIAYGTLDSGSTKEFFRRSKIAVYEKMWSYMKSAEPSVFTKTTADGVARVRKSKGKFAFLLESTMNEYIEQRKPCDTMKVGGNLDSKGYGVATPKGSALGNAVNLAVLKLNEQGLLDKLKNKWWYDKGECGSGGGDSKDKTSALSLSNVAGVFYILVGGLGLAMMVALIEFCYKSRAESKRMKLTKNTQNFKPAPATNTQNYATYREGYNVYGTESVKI
Description: Displacement of [3H]AMPA from rat cloned GluA3o receptor expressed in sf9 cells incubated for 1 to 2 hrs by liquid scintillation counting method

Glutamate receptor 2 [2] = target: T1, Glutamate receptor 2 (Homo sapiens, UniProt P42262); assay: Displacement of [3H]AMPA from GluA2 LBD (unknown origin) incubated for 2 hrs by liquid scintillation counting method
T1 sequence (P42262 whole entry, the tested form may be a part): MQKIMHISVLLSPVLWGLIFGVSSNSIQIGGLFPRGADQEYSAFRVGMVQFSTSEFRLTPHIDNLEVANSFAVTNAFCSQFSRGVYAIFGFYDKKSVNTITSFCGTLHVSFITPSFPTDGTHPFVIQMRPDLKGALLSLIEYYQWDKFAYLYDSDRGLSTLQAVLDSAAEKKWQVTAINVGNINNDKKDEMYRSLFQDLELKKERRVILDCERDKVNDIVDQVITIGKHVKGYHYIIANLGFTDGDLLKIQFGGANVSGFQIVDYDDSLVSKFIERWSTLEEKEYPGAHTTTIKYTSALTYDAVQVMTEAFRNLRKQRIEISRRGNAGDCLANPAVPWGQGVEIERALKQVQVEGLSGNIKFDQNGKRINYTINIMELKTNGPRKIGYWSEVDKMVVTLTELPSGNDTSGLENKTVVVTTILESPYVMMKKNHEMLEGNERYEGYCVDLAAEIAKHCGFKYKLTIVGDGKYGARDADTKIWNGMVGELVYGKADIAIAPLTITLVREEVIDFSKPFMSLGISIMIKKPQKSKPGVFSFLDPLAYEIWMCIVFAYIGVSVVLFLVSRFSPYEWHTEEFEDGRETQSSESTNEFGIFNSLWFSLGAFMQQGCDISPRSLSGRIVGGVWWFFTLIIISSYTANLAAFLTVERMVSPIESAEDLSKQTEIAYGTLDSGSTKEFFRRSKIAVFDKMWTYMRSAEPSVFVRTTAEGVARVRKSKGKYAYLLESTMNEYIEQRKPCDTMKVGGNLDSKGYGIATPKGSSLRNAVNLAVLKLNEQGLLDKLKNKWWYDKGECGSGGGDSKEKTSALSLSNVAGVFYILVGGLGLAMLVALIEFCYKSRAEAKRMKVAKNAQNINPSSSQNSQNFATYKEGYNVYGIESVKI

[3] = target: Glutamate receptor ionotropic, kainate 2 (Rattus norvegicus, UniProt P42260); assay: biochemical
Description: Displacement of [3H]SYM2081 from cloned rat GluK2(V,C,R)A receptor expressed in sf9 cells incubated for 1 to 2 hrs by liquid scintillation counting method

[4] = target: Glutamate receptor ionotropic, kainate 3 (Rattus norvegicus, UniProt P42264); assay: biochemical
Glutamate receptor ionotropic, kainate 3, sequence (P42264 whole entry): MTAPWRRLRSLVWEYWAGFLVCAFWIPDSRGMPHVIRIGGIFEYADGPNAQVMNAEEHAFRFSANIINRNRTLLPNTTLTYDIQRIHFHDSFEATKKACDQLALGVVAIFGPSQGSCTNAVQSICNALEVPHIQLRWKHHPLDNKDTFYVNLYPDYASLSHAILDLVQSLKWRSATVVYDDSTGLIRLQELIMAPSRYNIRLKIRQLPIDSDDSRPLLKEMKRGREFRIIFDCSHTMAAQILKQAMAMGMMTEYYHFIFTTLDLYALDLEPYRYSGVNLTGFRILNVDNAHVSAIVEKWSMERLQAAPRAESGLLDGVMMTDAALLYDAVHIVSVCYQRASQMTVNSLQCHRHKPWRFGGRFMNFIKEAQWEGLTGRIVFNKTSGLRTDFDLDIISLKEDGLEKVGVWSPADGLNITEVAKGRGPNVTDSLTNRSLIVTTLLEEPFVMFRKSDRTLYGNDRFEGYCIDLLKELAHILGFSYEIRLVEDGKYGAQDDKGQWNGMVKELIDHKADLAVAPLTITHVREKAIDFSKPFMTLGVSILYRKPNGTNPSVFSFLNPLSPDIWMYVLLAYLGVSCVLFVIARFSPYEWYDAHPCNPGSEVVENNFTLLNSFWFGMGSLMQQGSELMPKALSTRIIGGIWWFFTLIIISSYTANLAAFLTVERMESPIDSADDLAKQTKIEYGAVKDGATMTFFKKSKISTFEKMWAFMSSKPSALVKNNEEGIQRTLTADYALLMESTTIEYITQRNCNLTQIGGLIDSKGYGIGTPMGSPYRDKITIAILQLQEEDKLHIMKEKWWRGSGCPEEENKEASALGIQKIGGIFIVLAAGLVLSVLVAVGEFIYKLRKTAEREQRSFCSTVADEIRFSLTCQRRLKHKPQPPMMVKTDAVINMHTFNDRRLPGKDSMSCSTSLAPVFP
Description: Displacement of [3H]SYM2081 from cloned rat GluK3A receptor expressed in sf9 cells incubated for 1 to 2 hrs by liquid scintillation counting method

Glutamate receptor 2 [5] = target: T2, Glutamate receptor 2 (Rattus norvegicus, UniProt P19491); assay: Antagonist activity against recombinant rat GluA2(Q)i expressed in xenopus oocytes assessed as inhibition of L-glutamate-induced […] by two electrode voltage clamp method; format: cell-based
T2 sequence (P19491 whole entry): as the sequence (P42262 whole entry, the tested form may be a part) above, with M191T, T291A, R764G, A852P counted along it

Glutamate receptor 2 [6] = target: T2, Glutamate receptor 2; assay: Displacement of [3H]AMPA from full length rat cloned GluA2(R)o receptor expressed in sf9 cells incubated for 1 to 2 hrs by liquid scintillation counting method
Glutamate receptor 2 [7] = target: T1, Glutamate receptor 2; assay: Agonist activity at human GluA2(Q)i expressed in HEK293 cells assessed as enhancement of glutamate-evoked desensitized current by whole cell patch clamp method; format: cell-based

Glutamate receptor ionotropic, kainate 1, sequence (P22756 whole entry): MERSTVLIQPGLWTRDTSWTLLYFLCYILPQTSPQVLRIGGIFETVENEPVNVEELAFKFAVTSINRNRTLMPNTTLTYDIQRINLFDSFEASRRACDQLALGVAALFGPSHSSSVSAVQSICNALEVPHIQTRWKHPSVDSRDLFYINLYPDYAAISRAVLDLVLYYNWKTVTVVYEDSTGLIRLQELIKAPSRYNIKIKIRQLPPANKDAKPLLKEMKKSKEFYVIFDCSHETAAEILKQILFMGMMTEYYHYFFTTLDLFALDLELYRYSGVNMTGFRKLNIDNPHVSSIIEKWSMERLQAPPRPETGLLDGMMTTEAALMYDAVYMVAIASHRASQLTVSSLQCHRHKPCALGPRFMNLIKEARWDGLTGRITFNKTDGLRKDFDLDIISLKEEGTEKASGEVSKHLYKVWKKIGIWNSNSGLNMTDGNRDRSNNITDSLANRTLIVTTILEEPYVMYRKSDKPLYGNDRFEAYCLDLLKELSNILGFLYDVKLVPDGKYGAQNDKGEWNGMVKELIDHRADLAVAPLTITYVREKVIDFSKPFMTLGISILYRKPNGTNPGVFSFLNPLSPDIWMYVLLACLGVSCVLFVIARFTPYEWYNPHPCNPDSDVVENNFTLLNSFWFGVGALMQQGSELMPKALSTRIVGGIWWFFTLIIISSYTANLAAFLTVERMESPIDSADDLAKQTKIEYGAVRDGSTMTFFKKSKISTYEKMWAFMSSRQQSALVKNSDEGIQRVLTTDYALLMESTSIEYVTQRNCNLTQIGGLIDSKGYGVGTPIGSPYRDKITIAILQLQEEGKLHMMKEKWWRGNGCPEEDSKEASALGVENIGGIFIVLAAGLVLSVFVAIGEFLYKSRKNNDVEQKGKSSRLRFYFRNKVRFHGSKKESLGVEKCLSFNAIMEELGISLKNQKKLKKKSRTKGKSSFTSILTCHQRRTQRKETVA
Glutamate receptor 1, sequence (P19490 whole entry): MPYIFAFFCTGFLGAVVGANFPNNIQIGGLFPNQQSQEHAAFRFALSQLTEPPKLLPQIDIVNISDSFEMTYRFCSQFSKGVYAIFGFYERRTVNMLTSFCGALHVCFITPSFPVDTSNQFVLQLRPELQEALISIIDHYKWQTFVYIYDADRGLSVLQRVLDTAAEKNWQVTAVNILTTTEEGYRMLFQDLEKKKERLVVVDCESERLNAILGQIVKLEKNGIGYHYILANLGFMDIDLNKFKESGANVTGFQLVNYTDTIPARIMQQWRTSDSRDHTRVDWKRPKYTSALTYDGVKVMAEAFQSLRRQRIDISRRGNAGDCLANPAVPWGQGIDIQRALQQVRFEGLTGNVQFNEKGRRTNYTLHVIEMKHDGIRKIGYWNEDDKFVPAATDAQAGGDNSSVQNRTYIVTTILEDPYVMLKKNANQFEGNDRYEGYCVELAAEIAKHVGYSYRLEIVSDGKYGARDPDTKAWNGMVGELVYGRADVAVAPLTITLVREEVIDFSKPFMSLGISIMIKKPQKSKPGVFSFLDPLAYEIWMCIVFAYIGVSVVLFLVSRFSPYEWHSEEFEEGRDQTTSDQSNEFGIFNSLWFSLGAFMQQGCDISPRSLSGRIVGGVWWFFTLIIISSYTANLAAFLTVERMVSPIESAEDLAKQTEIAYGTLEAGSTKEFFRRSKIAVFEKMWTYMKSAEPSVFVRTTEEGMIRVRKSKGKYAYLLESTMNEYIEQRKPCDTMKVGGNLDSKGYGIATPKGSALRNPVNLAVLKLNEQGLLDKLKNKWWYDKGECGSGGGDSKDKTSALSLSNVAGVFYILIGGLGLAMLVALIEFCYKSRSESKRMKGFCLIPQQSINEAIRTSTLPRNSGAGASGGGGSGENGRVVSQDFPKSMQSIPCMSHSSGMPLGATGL
Description for Glutamate NMDA receptor: Displacement of [3H]CGP39653 from NMDA receptor in rat brain homogenate after 60 mins by Packard TopCount microplate scintillation counting method

Row | Structure (SMILES) | Ki [1] [µM] | Ki (Glutamate NMDA receptor) [µM] | other results
1 | N[C@@H](Cc1cc(Cl)c(Cl)c(-c2cncc(O)c2)c1)C(=O)O | > 100 | > 50 | Ki (Glutamate receptor 1): 6.65 µM; Ki (Glutamate receptor 3): 6.88 µM; Ki (Glutamate receptor 2 [2]): 2260 nM; Ki [3]: > 100 µM; Ki [4]: > 100 µM; IC50 (Glutamate receptor 2 [5]): 3.7 µM; Ki (Glutamate receptor 2 [6]): 1.74 µM
2 | NC(Cc1cc(Cl)c(Cl)c(-c2ccc(O)c(O)c2)c1)C(=O)O (stereo not given) | > 50 | > 50 | 
3 | N[C@H](Cc1cc(Cl)c(Cl)c(-c2cncc(O)c2)c1)C(=O)O | > 100 | > 50 | Ki (Glutamate receptor 1): > 100 µM; Ki (Glutamate receptor 3): > 100 µM; Ki [3]: > 100 µM; Ki [4]: > 100 µM; Ki (Glutamate receptor 2 [6]): > 100 µM
4 | NC(Cc1cc(Cl)c(Cl)c(-c2ccc3c(c2)OCCO3)c1)C(=O)O (racemic) | > 50 | > 50 | 
5 | NC(Cc1cc(Cl)c(Cl)c(-c2ccc(O)nc2)c1)C(=O)O (racemic) | > 50 | > 50 | 
6 | NC(Cc1cc(Cl)c(Cl)c(-c2cncc(O)c2)c1)C(=O)O (racemic) | > 50 | > 50 | 
7 | NC(Cc1cc(Cl)c(Cl)c(-c2cccc(S(N)(=O)=O)c2)c1)C(=O)O (racemic) | > 50 | > 50 | 
8 | Nc1cccc(-c2cc(CC(N)C(=O)O)cc(Cl)c2Cl)c1 (racemic) | > 50 | > 50 | 
9 | NC(Cc1cc(Cl)c(Cl)c(-c2cc(O)cc(O)c2)c1)C(=O)O (racemic) | > 50 | > 50 | 
10 | NC(Cc1cc(Cl)c(Cl)c(-c2cccc(CO)c2)c1)C(=O)O (racemic) | > 50 | > 50 | 
11 | COc1cccc(-c2cc(CC(N)C(=O)O)cc(Cl)c2Cl)c1 (racemic) | > 50 | > 50 | 
12 | NC(Cc1cc(Cl)c(Cl)c(-c2ccc(CO)cc2)c1)C(=O)O (racemic) | > 50 | > 50 | 
13 | NC(Cc1cc(Cl)c(Cl)c(-c2ccc(S(N)(=O)=O)cc2)c1)C(=O)O (racemic) | > 50 | > 50 | 
14 | NC(Cc1cc(Cl)c(Cl)c(-c2cccc(O)c2)c1)C(=O)O (racemic) | 92.3 |  | Ki (Glutamate receptor 1): 17.1 µM; Ki (Glutamate receptor 3): 55.1 µM; Ki [3]: 78.1 µM; Ki [4]: 52.3 µM; Ki (Glutamate receptor 2 [6]): 5.03 µM
15 | NS(=O)(=O)c1cc2c(cc1Cl)NC(C1CC3C=CC1C3)NS2(=O)=O (stereo not given) [CYCLOTHIAZIDE] |  |  | EC50 (Glutamate receptor 2 [7]): 7.6 µM
